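1) Cells in 96-well plates. 2) Compound, 48 h, 5 concentrations. 3) Linear interpolation between surrounding doses. 4) Unreached endpoint = highest concentration. Here, GI50 denotes the concentration required for 50% inhibition of growth. The concentration for full growth arrest is given as TGI.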
Assays:
Experiment in all cases: inhibition of tumour cell growth, NCI panel, 48 h
MALME-3M melanoma = system: MALME-3M melanoma
SNB-19 CNS = system: SNB-19 CNS
EKVX NSCLC = system: EKVX NSCLC
RXF 393 renal = system: RXF 393 renal
OVCAR-8 ovarian = system: OVCAR-8 ovarian
HCC-2998 colon = system: HCC-2998 colon
SF-539 CNS = system: SF-539 CNS
NCI-H23 lung = system: NCI-H23 lung
HT29 colon = system: HT29 colon
A498 renal = system: A498 renal

Row | Structure (SMILES) | GI50 (MALME-3M melanoma) [µM] | TGI (MALME-3M melanoma) [µM] | GI50 (SNB-19 CNS) [µM] | TGI (SNB-19 CNS) [µM] | GI50 (EKVX NSCLC) [µM] | TGI (EKVX NSCLC) [µM] | GI50 (RXF 393 renal) [µM] | TGI (RXF 393 renal) [µM] | GI50 (OVCAR-8 ovarian) [µM] | TGI (OVCAR-8 ovarian) [µM] | GI50 (HCC-2998 colon) [µM] | TGI (HCC-2998 colon) [µM] | GI50 (SF-539 CNS) [µM] | TGI (SF-539 CNS) [µM] | GI50 (NCI-H23 lung) [µM] | TGI (NCI-H23 lung) [µM] | GI50 (HT29 colon) [µM] | TGI (HT29 colon) [µM] | GI50 (A498 renal) [µM] | TGI (A498 renal) [µM]
1 | COc1ccc2[nH]c(-c3ccccc3)c(C=C(C#N)C#N)c2c1 | 4.41 | > 100 | 6.04 | > 100 | 4.05 | > 100 | 9.82 | > 100 | 7.71 | > 100 | 6.08 | > 100 | 2.94 | 22 | 4.08 | > 100 | 3.13 | > 100 | 2.01 | 6.22
2 | COc1cc(/C=C2\CCCC3C2=Nc2ccccc2NC3c2cc(OC)c(OC)c(OC)c2)cc(OC)c1OC (centres undefined) | 1.56 | 6.56 | 8.37 | > 100 | 7.45 | > 100 | 2.08 | 5.31 | 0.4 | 42.9 | 2.3 | 4.81 | 3.9 | > 100 | 2.15 | 13.8 | 1.21 | – | 1.49 | 6.41
3 | Cc1c2cnccc2c(C)c2c1c1cc(C(=O)O)ccc1n2C | 0.942 | 2.97 | 0.738 | 10.3 | 1.53 | 5.74 | 0.666 | 2.33 | 0.675 | 8.3 | 1.25 | 4.61 | 1.01 | 3.27 | 0.774 | 3.28 | 0.856 | 6.15 | 0.41 | 2.14
4 | NC(=O)c1ccc2nc(-c3ccc(C4(N)CCC4)cc3)c(-c3ccccc3)n2n1 | 1.19 | 19.7 | 11.3 | 25.8 | 13.6 | 49.6 | 0.335 | 4.13 | 17.4 | 39.3 | 13 | 31.7 | 2.13 | 13.7 | 16.4 | 51.8 | 1.5 | 25.7 | 0.0734 | 0.642
5 | COc1ccc(S(=O)(=O)NC2=NCCN2C(=S)SN2CCn3c2nsc3=S)cc1OC | 16.7 | 43.7 | 26.6 | > 100 | 50.1 | > 100 | 3.1 | 13 | 29.5 | > 100 | 24.7 | 44.1 | 34.3 | > 100 | 22.4 | 53 | 25.7 | 94.4 | 37.3 | > 100
6 | O=C(Nc1ccc(Cl)cc1F)c1cc(F)ccc1O | 0.41 | 2.27 | 0.669 | 18.6 | 1.88 | 9.97 | 0.864 | 4.28 | 2.4 | > 70.8 | 2.64 | 8.1 | 0.845 | 7.58 | 0.553 | 3.29 | 3.24 | > 34 | 0.251 | 0.98
7 | NC1=NN(c2ccccc2)C(=O)C1/C(=N\NC(=O)c1cc2ccccc2cc1O)C(=O)Nc1nc([N+](=O)[O-])cs1 (centres undefined) | – | > 100 | – | > 100 | – | > 100 | – | 7.27 | – | 62.6 | – | > 100 | – | 59.6 | – | 56.3 | – | > 93 | – | > 100
8 | CCc1nc(-n2c(CC)nc3ccccc3c2=O)nc(N)c1-c1ccc(Cl)cc1 | > 80.1 | > 100 | > 81.1 | > 100 | 99 | > 100 | > 100 | > 100 | 6.65 | > 100 | 2.41 | > 21 | 30.4 | > 100 | 10.9 | > 100 | 16.2 | > 100 | 27.2 | > 94.5
9 | COc1nc2c(cc1S(=O)(=O)c1ccccc1)CCc1c-2cnn1Cc1ccccc1 | 24.4 | > 100 | > 100 | > 100 | 14 | > 100 | 6.04 | > 100 | 34.5 | > 100 | 25.3 | > 100 | 17 | > 100 | 8.45 | > 100 | 3.89 | > 100 | 2.7 | > 100
10 | COc1cc(/C=C/C(=O)NC[C@]2(O)CCC3C4CCc5cc(O)ccc5C4CCC32C)ccc1O (some centres undefined) | 3.5 | 42.3 | 49 | > 100 | 13.9 | > 100 | 6.42 | 85.5 | 23.8 | > 100 | 8.62 | 32.4 | 16.1 | > 100 | 5.63 | 34 | 3.68 | 28.6 | 74.1 | > 100
11 | O=C1c2ccccc2C(=O)c2c(NC(=O)C(Cl)CCl)cccc21 (centres undefined) | – | 47.2 | – | 32.9 | – | 42.7 | – | 16.2 | – | > 39.1 | – | 32.4 | – | 11.5 | – | 11.6 | – | 10.5 | – | 36.2
12 | FC(F)(F)c1[nH]ncc1-c1nc2c(N3CCCCC3)cc3[nH]ncc3c2c2c1CCCC2 | 0.843 | 2.14 | 1.25 | > 16.5 | 0.868 | 2.48 | 0.395 | 1.07 | 0.825 | > 50 | 0.929 | 3.06 | 0.567 | 1.22 | 0.791 | 2.99 | 1.3 | > 50 | 0.0566 | 0.196
13 | NC(=S)N/N=C1\C(=O)N(CCc2ccccc2)C(=O)C1C(=O)NCCc1ccccc1 (centres undefined) | – | > 100 | – | > 100 | – | > 100 | – | > 100 | – | > 100 | – | > 100 | – | > 100 | – | > 100 | – | > 100 | – | > 100

From PubChem BioAssay (NCI)
